Source: patent publication US6433007B1, “Methods for the prevention and treatment of post-surgical complications” (Alcon Manufacturing, Ltd., priority 1998, dated 2002)

System: vitrectomy-induced PSC formation
Assay: Post-vitrectomy posterior subcapsular cataract (PSC) formation in Dutch Belted rabbits, surgical irrigating solution
Type: in vivo, Dutch Belted rabbit
Settings: for Incidence of Lens Line Suture Distortion: irrigating solution w/1.0 μM Compound X, rabbit, affected lenses/total lenses
Method: The following example illustrates the reduction in frequency of post-vitrectomy cataract formation, employing a surgical irrigating solution containing a compound of formula (I).
Age-matched, Dutch Belted rabbits were used in this study. At 2.5 months of age, unilateral, partial vitrectomy (vitreous replaced by irrigating solution) was performed. Briefly, rabbits (1.5-2.0 kg) were prepared for surgery by subcutaneous administration of atropine to maintain heart rate and limit lung and oropharynx fluid accumulation. Animals were then anesthetized by intramuscular administration of ketamine (45 mg/kg) and xylazine (6 mg/kg). Anesthesia was maintained by re-administration of half-doses of anesthetic every 35-45 minutes as needed. For pupil dilatation, phenylephrine HCL and cyclopentolate HCL were administered topically to the surgical eye (OD). The nonsurgical eye (OS) received Duratears and was then taped shut to prevent loss of moisture. Immediately prior to surgery, proparacaine was administered topically to the OD eye and a speculum inserted. […] Two sutures were placed in a figure eight (4 and 8 o'clock position), about 4.5 mm from the limbus, to accommodate the outer port suction cutter and endoilluminator, respectively. An inner port infusion cannula was sutured through the pars plana (6 o'clock position) about 4 mm from the limbus. Two additional punctures were made with a V-lance stiletto knife (20 gauge) for the instrument entry through the outer ports. Two sutures were then placed (3 and 9 o'clock position) in the sclera, approximately 1 mm from the limbus, to facilitate manipulation of the eye and to secure the metal contact lens holder. Viscoat® (125 μL) was then applied to the cornea followed by the placement of a wide angle lens onto the cornea. The vitreous was then removed using the SERIES TEN THOUSAND® OCUTOME® posterior-segment surgical system for 10 minutes by a combination of cutting (500 cuts/minute) and suction (90 mm Hg), while continually supplying BSS® or BSS Plus® irrigating solution, or an irrigating solution containing Compound X (1.0 μM) (at room temperature), at a rate of approximately 3.5 mL/minute and an ocular fluid pressure of 35 mm Hg. Upon completion of the surgery, instruments were withdrawn, infusion pressure reduced to 22 mm Hg, sclerotomies closed, and the conjunctiva reapproximated at the limbus with sutures. A typical surgical procedure required approximately 40-50 minutes, utilizing approximately 100 mL of irrigation solution. The amount of vitreous replaced was approximately 1.5 mL. At various times following vitrectomy, lenses were excised and immediately examined by low resolution light microscopy. Photographs were taken with a digital camera for a later assessment of line suture defects.
The results of this study document the early development of PSC in the Dutch Belted rabbit following vitrectomy, as quantified by scoring for the presence of distorted suture branches and sub-branches. […] Comparison of the effect of vitrectomy with standard irrigation and the Compound X-supplemented irrigation 3 month post-surgery indicated a high incidence of an acute distortion of normally straight line sutures for animals of the standard irrigation treatment groups (Table 1) but not the Compound X treated animals. […] This abnormal condition was further aggravated at […] post-vitrectomy, as recognized by the extension of existing sub-branches and the development of additional small sub-branches. […] This condition was essentially maintained throughout twelve months post-vitrectomy.
In contrast, 86% (or 6 out of 7 lenses) of the lenses from the Compound X treatment group were unaffected by vitrectomy with an average suture defect score of +1.7 at this same time point. The lens scores of animals treated with the Compound X supplemented therapeutic irrigation solution were essentially identical to those of naive controls (scoreavg=+1.63). […]

COc1ccc2cc([C@H](C)C(=O)OCC[C@@]3(C)CCc4c(C)c(O)c(C)c(C)c4O3)ccc2c1 [Compound X, (S)-6-methoxy-[…]-methyl-naphthaleneacetic acid, (R)-2-(3,4-dihydro-6-hydroxy-2,5,7,8-tetramethyl-2H-1-benzopyran-2-yl)ethyl ester]
rate of lens growth (3-12 months post-surgery, compared to naive controls, 1.0 μM in irrigating solution during vitrectomy): essentially identical to that of naive controls | Incidence of Lens Line Suture Distortion (3 month post-Vitrectomy): 0/8 | Incidence of Lens Line Suture Distortion (6 month post-Vitrectomy): 1/7 | Incidence of Lens Line Suture Distortion (12 month post-Vitrectomy): 1/7 | lenses unaffected by vitrectomy (12 months post-vitrectomy, 6 out of 7 lenses, 1.0 μM in irrigating solution): 86% | average suture defect score (12 months post-vitrectomy, scale 0 (straight line suture) to +6 (very crooked suture pattern with many sub-branches or mature cataract), naive controls +1.63): +1.7 | lens suture appearance (distortion, sub-branches) (six months post-surgery, essentially maintained throughout twelve months post-vitrectomy, low resolution light microscopy): only slightly distorted suture branches which, on average, were devoid of sub-branches
